Experimental data as given in publication PMC7921117, “Structural characterization of the microbial enzyme urocanate reductase mediating imidazole propionate production” (Nature Communications, 2021).

Key:
UrdA′ (two-domain UrdA) [1] = molecular target: T1, UrdA′ (two-domain UrdA) (Shewanella oneidensis, UniProt Q8CVD0); experiment: X-ray structure ([…] Å); activity inhibition; details: ADP in the FAD-binding site; no urocanate bound, glycerol in substrate site
T1 construct: clamp and FAD domains, residues 130-582, C-terminal 6xHis kept, N-terminal FMN domain absent; E. coli TUNER(DE3) (mutants BL21(DE3)); mostly monomer
T1 sequence (Q8CVD0 130-582): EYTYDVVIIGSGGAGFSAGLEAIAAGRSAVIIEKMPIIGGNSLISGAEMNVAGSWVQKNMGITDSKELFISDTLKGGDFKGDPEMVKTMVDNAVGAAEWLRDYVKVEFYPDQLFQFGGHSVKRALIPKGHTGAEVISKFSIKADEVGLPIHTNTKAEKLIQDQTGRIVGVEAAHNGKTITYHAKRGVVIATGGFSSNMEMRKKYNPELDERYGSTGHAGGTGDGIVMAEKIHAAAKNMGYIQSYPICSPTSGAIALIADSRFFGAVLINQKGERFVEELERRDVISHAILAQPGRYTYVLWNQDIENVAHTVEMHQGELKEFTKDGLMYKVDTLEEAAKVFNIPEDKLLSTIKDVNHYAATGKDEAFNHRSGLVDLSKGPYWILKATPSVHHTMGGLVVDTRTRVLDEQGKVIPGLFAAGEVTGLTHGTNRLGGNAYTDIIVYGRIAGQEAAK

UrdA′ (two-domain UrdA) [2] = molecular target: T1, UrdA′ (two-domain UrdA); experiment: X-ray structure ([…] Å); assay type: binding; details: no substrate bound; sulfate in active site; FAD also in 6T87 and 6T88

Row | Structure (SMILES) | X-ray structure (1.1 Å); activity inhibition (UrdA′ (two-domain UrdA) [1]) | X-ray structure (2.56 Å) (UrdA′ (two-domain UrdA) [2])
1 | Nc1ncnc2c1ncn2[C@@H]1O[C@H](COP(=O)(O)OP(=O)(O)O)[C@@H](O)[C@H]1O [ADP] | supported by the ADP-induced inhibition of UrdA′ activity | 
2 | Cc1cc2nc3c(=O)[nH]c(=O)nc-3n(C[C@H](O)[C@H](O)[C@H](O)COP(=O)(O)OP(=O)(O)OC[C@H]3O[C@@H](n4cnc5c(N)ncnc54)[C@H](O)[C@@H]3O)c2cc1C [FAD] |  | 6T86 for apo-FAD, 6T87 for uro-FAD, and 6T88 for imp-FAD
